Test [1] has as its system RSV A Tracy. The test is described as follows: RSV A Tracy microneutralization (MN) assay of mAbs. The format is cell-based, respiratory syncytial virus. To be noted: for MN titer: RSV A Tracy, HEp-2 cells, 50% reduction in viral cytopathic effect. The protocol: The RSV A Tracy MN assay was performed by Prof. Pedro Piedra at Baylor College of Medicine, Texas, USA. Heat-inactivated serum samples were analyzed for nAbs against RSV A/Tracy in HEp-2 cells using qualified MN assays as previously described[38]–[41]. nAb titers were defined as the final dilution at which there was a 50% reduction in viral cytopathic effect. Any serum sample resulting in a titer less than the lower limit of detection (LOD) (2.5 log2) was assigned a value of 2 log2.
For orientation: Protection from cytopathic effect is a common read-out in antiviral testing.

The subject of test [2] is RSV strain A2. Kind of test: Passive transfer challenge model, lung virus titer by plaque assay. The format is in vivo. Conditions: cotton rats n = 5, mAb 24 h before challenge with 10^4 PFU RSV A2, doses 1.0, 2.5, 5.0, 15 mg; lungs day 5; ****P ≤ 0.0001 vs PBS. The protocol:
The challenge study comparing 10D11 and palivizumab was performed at Sigmovir Biosystems Inc. (MD, USA). Young adult male cotton rats (8, 6–8 weeks old) were treated IM with the mAb (1.0, 2.5, 5.0, or 15 mg doses). All animals were challenged with 100 µl RSV/A2 at 10^5 pfu per animal. After sacrificing the animals, nasal and lung tissue were harvested for viral titration using the RSV/A2 60% PRNT assay described above.

For test [3], the system named is palivizumab. The test is described as follows: ELISA binding of palivizumab to coated V-306, V-306p or SVLP carrier. The arrangement: species or system humanized murine. The protocol:
These ELISA were performed at the Center for Vaccinology (CEVAC), Ghent University and University Hospital, Belgium, based on the methods described above. […] Then 8 twofold serial dilutions of human serum were added. After washing, anti-human IgG Fc mAb-HRP (1/120,000 dilution) was added. After washing, TMB substrate was added. The color reaction was terminated by the addition of 1 N sulphuric acid. After 30 min the OD is read. The optical density for a given sample was used to extrapolate the Ab titer expressed in µg/mL. The coating conditions were optimized using IgG-depleted human serum spiked with known concentrations of palivizumab such that no further increase in signal is observed (saturation point) and no significant signal is seen in the negative control. The sensitivity of the assay was determined using different concentrations of palivizumab (from 0 to 200 µg/mL) and of anti-human IgG HRP-conjugated Ab (see Supplementary Fig. 5). The detection limit was 0.012207 µg/mL palivizumab (0.61 µg/mL in human serum diluted 1/50). The palivizumab-like Ab concentrations found in 20 different human sera (serum samples 001–020) are shown in Supplementary Fig. 5.
(In general: An ELISA detects its analyte on a solid surface through an enzyme-linked reagent.)

Entries after “also recorded” stand apart in the source; their conditions may differ.

We go through 2 molecules from publication PMC8213762, “An epitope-specific chemically defined nanoparticle vaccine for respiratory syncytial virus” (NPJ Vaccines, 2021).

“palivizumab: prophylactic humanized murine monoclonal nAb” yielded an MN titer in test [1] of 5.0 log2. The “reduction of RSV replication in lungs, passive transfer” value in test [2] is “significantly reduced RSV replication in the lungs in a dose-dependent manner”. For the same molecule, the “detection limit of ELISA” value in test [3] (ELISA with palivizumab standard 0 to 200 µg/mL) was 0.01221 µg/mL. In test [3] (human serum diluted 1/50), the “detection limit of ELISA in human serum” value is 0.61 µg/mL.

B1: 10D11: monoclonal antibody against V-306 generated in BALB/c mice (antibody, V domains shown)
VH: QVQLKESGPGLVAPSQSLSITCTVSGFSLTSYDISWIRQPPGKGLEWLGIIWNGGGTNYNSAFMSRLSINKDNSKSQVFLKMNSLQTDDTAIYYCVRGDYDYAWFDYWGQGTLVTVSA
VL: NIMMTQSPSSLTVSAGEKVTMSCKSSQSVLYGSNQKNYLAWYQQKPGQSPKLLIYWASTRDSGVPDRFTGSGSGTDFTLTISSVQAEDLAVYYCHQYLFSWTFGGGTKLEIK
As to B1, the “MN potency of 10D11 relative to palivizumab (fold)” value in test [1] (RSV A Tracy MN) is recorded as “approximately fourfold”. This molecule returned an MN titer in test [1] of 7.0 log2. Besides, in test [2], the “reduction of RSV replication in lungs, passive transfer” value is listed as “significantly reduced RSV replication in the lungs in a dose-dependent manner; also recorded: reduced lung virus titers in a dose-dependent manner”.
